Data: patent US11466044B2 (WAYNE STATE UNIVERSITY, priority 2017, dated 2022)
Where a name gives a salt, the structure may show the parent alone. Read-outs that look alike come from different tables or passages of the source.

Assays:
MRSA = test: MIC by broth microdilution, MRSA isolates; assay type: cell-based; conditions: Staphylococcus aureus, MRSA, Table 1 (Example 3)
E coli wild type = test: MIC by broth microdilution, wild type E coli; assay type: cell-based; conditions: for MIC: Escherichia coli
P aeruginosa = test: MIC by broth microdilution, P aeruginosa isolates; assay type: cell-based, Pseudomonas aeruginosa; conditions: strain AG220 Pseudomonas aeruginosa ATCC27853; read-out: MIC AG220 P. aerugin
[1] = tested on: E coli carrying specific resistance determinants; test: MIC by broth microdilution, E coli carrying specific resistance determinants; assay type: cell-based; conditions: for MIC: Escherichia coli
M. abscessus = test: MIC by broth microdilution, M. abscessus; assay type: cell-based; conditions: Mycobacteroides abscessus
[2] = tested on: wild type bacterial ribosomes; test: in-vitro translation assay, bacterial ribosomes; assay type: biochemical; conditions: for IC50: bacterial ribosome, Table 4 (Example 3), read-out: IC50 Bac; for selectivity for the bacterial ribosome over mitochondrial (wild type, A1555G mutant) and cytosolic ribosomes, in words: compared with the parent compound
Excerpt: (§1) The antiribosomal activity of these compounds was investigated with cell-free translation assays using both wild type bacterial ribosomes and hybrid ribosomes carrying eukaryotic decoding A sites enabling the prediction of selectivity.

[3] = tested on: A1555G mutant mitochondrial ribosome (human chimeric); test: in-vitro translation assay, human chimeric ribosomes, A1555G mutant mitochondrial decoding site; assay type: biochemical; conditions: Table 3 (Example 3)
Excerpt: as §1

[4] = tested on: cytosolic ribosome (human chimeric); assay type: biochemical; conditions: for Selectivity for Binding to the Bacterial Ribosome over the Cytosolic Ribosome: Table 3 (Example 3); for IC50: cytosolic, Table 4 (Example 3), read-out: IC50 Cyt
Excerpt: as §1

[5] = tested on: mitochondrial ribosome (human chimeric); assay type: biochemical; conditions: for Selectivity for Binding to the Bacterial Ribosome over the Mitochondrial Ribosome: Table 3 (Example 3); for IC50: mitochondrial, Table 4 (Example 3), read-out: IC50 Mit
Excerpt: as §1

[6] = tested on: Klebsiella pneumonia AG215; test: MIC by broth microdilution, Klebsiella pneumonia; assay type: cell-based; conditions: Klebsiella pneumoniae; strain AG215 Klebsiella pneumonia; read-out: MIC AG215 K. pneumon
[7] = tested on: Acinetobacter baumannii pittii AG225; test: MIC by broth microdilution, Acinetobacter baumannii; assay type: cell-based; conditions: strain AG225 Acinetobacter baumannii pittii
[8] = tested on: Enterobacter cloacae AG290; test: MIC by broth microdilution, Enterobacter cloacae; assay type: cell-based; conditions: strain AG290 Enterobacter cloacae; read-out: MIC AG290 E. cloacae
N. gonorrhoeae = test: Disk diffusion, N. gonorrhoeae; assay type: cell-based; conditions: Neisseria gonorrhoeae
M. smegmatis SZ380 = test: MIC by broth microdilution, M. smegmatis; conditions: Mycolicibacterium smegmatis
[9] = clinical isolate AG038, read-out: MIC MRSA AG038
[10] = clinical isolate AG039, read-out: MIC MRSA AG039
[11] = clinical isolate AG042, read-out: MIC MRSA AG042
[12] = AG006 Wild type, Table 2 (Example 3), read-out: MIC E coli AG006 Wild type
[13] = AG104 Wild type, Table 2 (Example 3), read-out: MIC E coli AG104 Wild type
[14] = ATCC25922, strain AG212 E. coli (ATCC25922), read-out: MIC AG212 E. coli
[15] = WT, Table 4 (Example 3), read-out: MIC E. coli WT
[16] = WT, Table 5 (Example 3), read-out: MIC E. coli WT
[17] = clinical isolate AG001, Table 1 (Example 3), read-out: MIC E coli AG001
[18] = clinical isolate AG003, Table 1 (Example 3), read-out: MIC E coli AG003
[19] = clinical isolate AG055, Table 1 (Example 3), read-out: MIC E coli AG055
[20] = read-out: MIC E coli AG106 AAC(2′)
[21] = read-out: MIC E. coli AAC(2′) AG106
[22] = read-out: MIC E. coli AAC(2′) pH434
[23] = read-out: MIC E. coli AG106 AAC(2′)-Ia
[24] = read-out: MIC E. coli pGB2armA armA
[25] = read-out: MIC E. coli pH434 AAC(2′)-Ib
[26] = ATCC19977, ATCC 19977 WT, Table 5 (Example 3), read-out: MIC M. abscessus ATCC 19977 WT
[27] = read-out: MIC M. abscessus engineered Δeis2
[28] = ATCC, Table 4 (Example 3), read-out: MIC M. abscessus ATCC
[29] = Clin. Isol., Table 4 (Example 3), read-out: MIC M. abscessus Clin. Isol.
[30] = SZ380, read-out: MIC M. smegmatis SZ380 WT, SZ380 WT, Table 5 (Example 3)
[31] = SZ380, read-out: MIC SZ380 M. smegmatis, strain SZ380 Mycobacterium smegmatis

Row | SMILES | MIC (MRSA; [9]) [µg/mL] | MIC (MRSA; [10]) [µg/mL] | MIC (MRSA; [11]) [µg/mL] | MIC (E coli wild type; [14]) [µg/mL] | MIC (E coli wild type; [15]) [µg/mL] | MIC (E coli wild type; [16]) [µg/mL] | MIC (E coli wild type; [17]) [µg/mL] | MIC (E coli wild type; [18]) [µg/mL] | MIC (E coli wild type; [19]) [µg/mL] | MIC (P aeruginosa) [µg/mL] | MIC [1, 21] [µg/mL] | MIC [1, 22] [µg/mL] | MIC [1, 24] [µg/mL] | MIC [1, 25] [µg/mL] | MIC (M. abscessus; [26]) [µg/mL] | MIC (M. abscessus; [27]) [µg/mL] | MIC (M. abscessus; [28]) [µg/mL] | MIC (M. abscessus; [29]) [µg/mL] | IC50 [2] [µM] | selectivity for the bacterial ribosome over mitochondrial (wild type, A1555G mutant) and cytosolic ribosomes, in words [2] | further results
1 | CCNC1C(OC2C(N)CC(N)C(O)C2OC2OC(CO)C(OC3OC(CN)C(O)C(O)C3N)C2O)OC(CN)C(O)C1O (centres unmarked) [Compound 172, 2′-N-Ethyl-neomycin acetate salt] | 0.5 | > 32 | > 32 | 1 | 0.5 to 1 | 0.5 to 1 | 1 to 2 | 1 | 1 | > 32 | 0.5 | 1 | 1 | 1 | 0.25 | 0.063 | 0.25 | 0.5 | 0.01 | increased selectivity for the bacterial ribosome | MIC (E coli wild type; [12]): 0.5 µg/mL; MIC (E coli wild type; [13]): 0.5 µg/mL; MIC [1, 20]: 0.5 µg/mL; MIC [1, 23]: 0.5 µg/mL; Selectivity for Binding to the Bacterial Ribosome over the Mutant Mitochondrial Ribosome [3]: 111; Selectivity for Binding to the Bacterial Ribosome over the Cytosolic Ribosome [4]: 3111; IC50 [4]: 43 µM; Selectivity for Binding to the Bacterial Ribosome over the Mitochondrial Ribosome [5]: 850; IC50 [5]: 11 µM; MIC [6]: 0.5 µg/mL; MIC [7]: 1 µg/mL; MIC [8]: 0.5 to 1 µg/mL; zone of inhibition at 25 nmol/disc (N. gonorrhoeae): 9 mm; MIC (M. smegmatis SZ380; [30]): < 0.063 µg/mL; MIC (M. smegmatis SZ380; [31]): < 0.0625 µg/mL
2 | NCC1OC(OC2C(N)CC(N)C(O)C2OC2OC(CO)C(OC3OC(CN)C(O)C(O)C3N)C2O)CC(O)C1O (centres unmarked) [Compound 173, 2′-Deamino-neomycin acetate salt] | 1 | 32 | 32 | 1 | 1 | 1 | 2 | 1 to 2 | 2 | > 64 | 1 | 8 | 1 | 8 | 4 | 0.125 | 4 | 8 | 0.03 | increased selectivity for the bacterial ribosome | MIC (E coli wild type; [12]): 1 µg/mL; MIC (E coli wild type; [13]): 0.5 to 1 µg/mL; antibacterial activity, in words (E coli wild type; MRSA and E coli, compared with the parent compound): little to no loss of antibacterial activity; effect of the AAC(2′) resistance determinant, in words ([1]; AAC(2′)): overcomes the effect of AAC(2′); MIC [1, 20]: 1 µg/mL; MIC [1, 23]: 1 µg/mL; Selectivity for Binding to the Bacterial Ribosome over the Mutant Mitochondrial Ribosome [3]: 31; Selectivity for Binding to the Bacterial Ribosome over the Cytosolic Ribosome [4]: 3188; IC50 [4]: 85 µM; Selectivity for Binding to the Bacterial Ribosome over the Mitochondrial Ribosome [5]: 831; IC50 [5]: 22 µM; MIC [6]: 0.5 µg/mL; MIC [7]: 1 µg/mL; MIC [8]: 1 µg/mL; zone of inhibition at 25 nmol/disc (N. gonorrhoeae): 10 mm; MIC (M. smegmatis SZ380; [30]): 0.25 µg/mL; MIC (M. smegmatis SZ380; [31]): 0.25 µg/mL
3 | CCCNC1C(OC2C(N)CC(N)C(O)C2OC2OC(CO)C(OC3OC(CN)C(O)C(O)C3N)C2O)OC(CO)C(O)C1O (centres unmarked) [Compound 128, 2′-N-Propyl-paromomycin acetate salt] | 8 to 16 | > 128 | > 128 | 4 | 2 | 2 | 16 | 16 | 16 | > 64 | 2 | 4 | 4 to 8 | 4 | 32 | 1 | 32 | 64 | 0.05 | increased selectivity for the bacterial ribosome | MIC (MRSA; clinical isolate AG044, read-out: MIC MRSA AG044): 4 µg/mL; Selectivity for Binding to the Bacterial Ribosome over the Mutant Mitochondrial Ribosome [3]: 763; Selectivity for Binding to the Bacterial Ribosome over the Cytosolic Ribosome [4]: 425; IC50 [4]: 21 µM; Selectivity for Binding to the Bacterial Ribosome over the Mitochondrial Ribosome [5]: 3066; IC50 [5]: 153 µM; MIC [6]: 2 µg/mL; MIC [7]: 4 µg/mL; MIC [8]: 2 µg/mL; zone of inhibition at 25 nmol/disc (N. gonorrhoeae): 11 mm; MIC (M. smegmatis SZ380; [30]): 2 µg/mL; MIC (M. smegmatis SZ380; [31]): 2 µg/mL
